Series [1] in a line: Inhibition of HIV1 His-tagged integrase/His-tagged LEDGF/p75 (unknown origin) interaction expressed in Escherichia coli BL21(DE3) preincubated for 30 mins with viral integrase followed by LEDGF/p75 addition measured after 30 mins by HTRF assay. For orientation: TR-FRET usually uses a lanthanide donor and a delayed reading to cut background.
Series [2] is described as follows: Inhibition of His-tagged LEDGF/p75 (unknown origin) dependent FLAG or His-tagged HIV1 integrase activity expressed in Escherichia coli BL21(DE3) using 32-mer blunt-ended U5 viral donor DNA and pBR322 target DNA preincubated for 5 mins followed by LEDGF/p75 addition measured after 90 mins by agarose gel electrophoresis.
Series [3] in a line: Inhibition of FLAG or His-tagged HIV1 integrase 3' processing activity expressed in Escherichia coli BL21(DE3) using [32P]-labeled blunt ended 21-mer or recessed ended 19-mer double stranded U5 DNA as substrate preincubated for 30 mins followed by substrate addition measured after 1 hr by polyacrylamide gel electrophoresis. Details: species or system Human immunodeficiency virus 1.

Series [4] relates to Human immunodeficiency virus 1. The experiment in a line: Antiviral activity against VSV-g pseudotyped HIV1 infected in HEK293T cells incubated for 2 hrs prior to viral infection followed by compound wash out at 2 hrs post infection and subsequent compound readdition measured after 48 hrs by luciferase reporter gene assay. The class given is functional, cell-based. The conditions noted are these: HEK-293T. For orientation: In a reporter assay the amount or activity of a reporter protein is the signal.

Series [5] can be described thus: Cytotoxicity against HEK293T cells assessed as reduction in cell viability. The class given is toxicity, cell-based. The conditions noted are these: human, hek-293t.

Each structure is given as a SMILES string. Calls of active or inactive are those of the source. The rule behind the calls is not given here.

With `O=C(O)c1cc(N(Cc2ccccc2F)Cc2ccccc2F)ccc1O`, the IC50 (commonly the concentration at which inhibition is half-maximal) in series [1] was 17.8 µM; in series [2], 9 µM; in series [3], 63.1 µM.

For `O=C(O)c1cc(N(Cc2cccc(F)c2)Cc2cccc(F)c2)ccc1O`, the 50% inhibitory concentration (IC50) in series [1] was found to be 20.8 µM; in series [2], 18.5 µM; in series [3], 68.6 µM.

Consider `O=C(O)c1cc(N(Cc2cccc(Cl)c2)Cc2cccc(Cl)c2)ccc1O`, for which the IC50 is 19.5 µM in series [1], 13.5 µM in series [2] and above 70 µM in series [3].

On to `O=C(O)c1cc(N(Cc2ccccc2)Cc2ccccc2)ccc1O`, for which the IC50 in series [1] stood at 8.75 µM; in series [2], 7.93 µM; in series [3], 70 µM.

Turning to `O=C(O)c1cc(N(Cc2ccccc2Cl)Cc2ccccc2Cl)ccc1O`, the values for the IC50 in series [1], in series [2] and in series [3] were 3.28 µM, 3.78 µM and 25.6 µM, respectively. Further, the outcome in series [4] was Active. The Activity entry in series [5] is reported as “Toxic”.

As to `Cc1ccccc1CN(Cc1ccccc1C)c1ccc(O)c(C(=O)O)c1`, the IC50 was 27.6 µM in series [1], 14.7 µM in series [2] and above 70 µM in series [3].

Values taken from ChEMBL document CHEMBL3872219, “Computational and synthetic approaches for developing Lavendustin B derivatives as allosteric inhibitors of HIV-1 integrase” (Eur J Med Chem, 2016).
